Experimental data taken from patent US8507692B2, “Ester compound and use thereof” (Sumitomo Chemical Company, Limited, priority 2010, dated 2013).

Experiments:
Type in all cases: in vivo
[1] = system: houseflies (Musca domestica); assay: Test Example 4: oil solution spray knock-down test on houseflies in glass chamber; details: 0.025% (w/v) oil solution, 0.7 ml sprayed into 70 cm cubic glass chamber; adult houseflies; five minutes after spraying
Experimental: (§1) Zero point zero two five (0.025) part of the compound of the present invention (1) and (13) was dissolved in 10 parts of isopropyl alcohol, and the solution was mixed with 89.975 parts of deodorized kerosene to prepare a 0.025% (w/v) oil solution.
(§2) Ten adult houseflies (Musca domestica) were released in a cubic glass chamber having each side of 70 cm, and 0.7 ml of the oil solution of the compound of the present invention (1) and (13) was sprayed into the chamber through a small window on the side of the chamber using a spraying gun at a pressure of 0.9 kg/cm^2. Five minutes after spraying, the number of knocked-down flies was counted and a knock-down ratio was determined. A knocked-down ratio was calculated by the following equation. Knocked-down ratio(%)=(Number of knocked-down flies/Number of test flies)×100

[2] = system: common mosquitoes (Culex pipens pallens); assay: Test Example 3: oil solution spray knock-down test on common mosquitoes in glass chamber; details: 0.025% (w/v) oil solution sprayed into 70 cm cubic glass chamber; adult female common mosquitoes; three minutes after spraying
Experimental: as §1
as §2, with “female common mosquitoes (Culex pipens pallens)” for “houseflies (Musca domestica)”, “cm. The” for “cm, and 0.7 ml of the”, “Three” for “Five”, “mosquitoes” for “flies”, “mosquitoes/Number” for “flies/Number”, “mosquitoes)×100” for “flies)×100”

[3] = system: American cockroaches (Periplaneta Americana); assay: Test Example 1: oil solution spray knock-down test on American cockroaches; details: 0.1% (w/v) oil solution, 1.5 ml sprayed, adult American cockroaches
Experimental: Zero point one (0.1) part of the compound of the present inventions (1) to (6) was dissolved in 10 parts of isopropyl alcohol and the solution was mixed with 89.9 parts of deodorized kerosene to prepare a 0.1% (w/v) oil solution.
(§3) Six adult American cockroaches (Periplaneta Americana, 3 males and 3 females) were released in a test container (diameter 12.5 cm, 10 cm high, the bottom face is made of 16 mesh metallic wire), the inner face on which butter was applied, and the container was set at the bottom of a test chamber (bottom face: 46 cm×46 cm, height: 70 cm). Each 1.5 ml of the oil solution of the compound of the present invention (1) to (6) was sprayed using a spray gun at a pressure of 0.4 kg/cm^2 from 60 cm higher than the upper face of the container. Thirty seconds after the spraying, the container was pulled out from the chamber. After a prescribed time, the number of knocked-down cockroaches was counted and a knock-down ratio was determined (repeated twice). The knocked-down ratio was calculated by the following equation. Knocked-down ratio(%)=(Number of knocked-down cockroaches/Number of test cockroaches)×100
For comparison, the test was conducted in the same manner as the above, except for using 2,5-dioxo-3-(2-propynyl)imidazolidinylmethyl=(1R)-trans-3-(2-methyl-1-propenyl)-2,2-dimethylcyclopropane carboxylate (compound described in Pesticide Science, 10, p. 291 (1979), hereinafter referred to as the comparative compound (1)) represented by the following formula:
[drawing 41] and 2,5-dioxo-3-(2-propynyl)imidazolidinylmethyl=(1R)-cis-3-((Z)-2-cyano-2-methoxyethenyl)-2,2-dimethylcyclopropane carboxylate (compound described in JP-A-60-16962, hereinafter referred to as the comparative compound (2)) represented by the following formula: […]

[4] = system: American cockroaches (Periplaneta Americana); assay: Test Example 8: oil solution spray knock-down test on American cockroaches, 3 minutes; details: 0.1% (w/v) oil solution, 1.5 ml sprayed, adult American cockroaches
Experimental: Zero point one (0.1) part of the compound of the present inventions (1) to (6) and (9) to (12) was dissolved in 10 parts of isopropyl alcohol and the solution was mixed with 89.9 parts of deodorized kerosene to prepare a 0.1% (w/v) oil solution.
as §3, with “(6) and (9) to (12)” for “(6)”, “Three minutes after spraying,” for “After a prescribed time,”

[5] = system: German cockroaches (Blattella germanica); assay: Test Example 2: oil solution spray knock-down test on German cockroaches; details: 0.00625% (w/v) oil solution, 1.5 ml sprayed, adult German cockroaches
Experimental: Zero point zero six two five (0.00625) part of the compound of the present inventions (1) to (6) and (9) to (12) was dissolved in 10 parts of isopropyl alcohol and the solution was mixed with 89.99375 parts of deodorized kerosene to prepare a 0.00625% (w/v) oil solution.
Ten adult German cockroaches (Blattella germanica, 5 males and 5 females) were released in a test container (diameter 8.75 cm, 7.5 cm high, the bottom face is made of 16 mesh metallic wire), the inner face on which butter was applied, and the container was set at the bottom of a test chamber (bottom face: 46 cm×46 cm, height: 70 cm).
Each 1.5 ml of the oil solution of the compound of the present invention (1) to (6) and (9) to (12) was sprayed using a spray gun at a pressure of 0.4 kg/cm^2 from 60 cm higher than the upper face of the container. Thirty seconds after the spraying, the container was pulled out from the chamber. After a prescribed time, the number of knocked-down cockroaches was counted and a knock-down ratio was determined (repeated once). A knocked-down ratio was calculated by the following equation. Knocked-down ratio(%)=(Number of knocked-down cockroaches/Number of test cockroaches)×100 The results (2 minutes after spraying) are shown in Table 2.

[6] = system: American cockroaches (Periplaneta fuliginosa); assay: Test Example 7: oil solution spray knock-down test on cockroaches (Periplaneta fuliginosa); details: 0.1% (w/v) oil solution, 1.5 ml sprayed; adult cockroaches (Periplaneta fuliginosa); one minute after spraying
Experimental: Zero point one (0.1) part of the compound of the present invention (4) was dissolved in 10 parts of isopropyl alcohol and the solution was mixed with 89.9 parts of deodorized kerosene to prepare a 0.1% (w/v) oil solution.
as §3, with “fuliginosa,” for “Americana,”, “One point five (1.5)” for “Each 1.5”, “(4)” for “(1) to (6)”, “One minutes after spraying,” for “After a prescribed time,”, “cockroaches)×100 The knocked-down ratio of the compound of the present invention (4) was 100%.” for “cockroaches)×100”

Row | Compound | Knocked-down ratio [1] [%] | Knocked-down ratio [2] [%] | Knock-down ratio (%) 2 minutes after spraying [3] [%] | Knock-down ratio (%) 3 minutes after spraying [4] [%] | Knock-down ratio (%) 2 minutes after spraying [5] [%] | Knocked-down ratio [6] [%]
1 | C#CCN1CC(=O)N(COC(=O)[C@@H]2[C@@H](C=C(C#N)SC)C2(C)C)C1=O (relative stereo) [compound of the present invention (1), 2,5-dioxo-3-(2-propynyl)imidazolidinylmethyl=(1R)-trans-3-[(1EZ)-2-cyano-2-(methylthio)ethenyl]-2,2-dimethylcyclopropane carboxylate] | 100 | 100 | 100 |  |  | 
2 | C#CCN1CC(=O)N(COC(=O)[C@@H]2[C@@H](C=C(C#N)SCC)C2(C)C)C1=O (relative stereo) [compound of the present invention (2), 2,5-dioxo-3-(2-propynyl)imidazolidinylmethyl=(1R)-trans-3-[(1EZ)-2-cyano-2-(ethylthio)ethenyl]-2,2-dimethylcyclopropane carboxylate] |  |  | 100 |  |  | 
3 | C#CCN1CC(=O)N(COC(=O)[C@@H]2[C@@H](C=C(C#N)SCC)C2(C)C)C1=O (relative stereo) [compound of the present invention (9), 2,5-dioxo-3-(2-propynyl) imidazolidinylmethyl=(1R)-trans-3-[(1EZ)-2-cyano-2-(ethylthio)ethenyl]-2,2-dimethylcyclopropane carboxylate] |  |  |  | 100 | 100 | 
4 | C#CCN1CC(=O)N(COC(=O)[C@@H]2[C@@H](C=C(C#N)SC)C2(C)C)C1=O (relative stereo) [compound of the present invention (10), 2,5-dioxo-3-(2-propynyl)imidazolidinylmethyl=(1R)-trans-3-[(1EZ)-2-cyano-2-(methylthio)ethenyl]-2,2-dimethylcyclopropane carboxylate] |  |  |  | 100 | 100 | 
5 | C#CCN1CC(=O)N(COC(=O)[C@@H]2[C@@H](C=C(C)C)C2(C)C)C1=O [comparative compound (1), 2,5-dioxo-3-(2-propynyl)imidazolidinylmethyl=(1R)-trans-3-(2-methyl-1-propenyl)-2,2-dimethylcyclopropane carboxylate, reference compound] |  |  | 58 |  |  | 
6 | C#CCN1CC(=O)N(COC(=O)[C@@H]2[C@H](/C=C(/C#N)OC)C2(C)C)C1=O [comparative compound (2), 2,5-dioxo-3-(2-propynyl)imidazolidinylmethyl=(1R)-cis-3-((Z)-2-cyano-2-methoxyethenyl)-2,2-dimethylcyclopropane carboxylate, reference compound] |  |  | 42 |  |  | 
7 | C#CCN1CC(=O)N(COC(=O)[C@@H]2[C@@H](C=C(C#N)SCCC)C2(C)C)C1=O [compound of the present invention (3), 2,5-dioxo-3-(2-propynyl)imidazolidinylmethyl=(1R)-trans-3-[(1EZ)-2-cyano-2-(propylthio)ethenyl]-2,2-dimethylcyclopropane carboxylate] |  |  | 100 | 100 | 100 | 
8 | C#CCN1CC(=O)N(COC(=O)[C@@H]2[C@@H](/C=C(\C#N)SC)C2(C)C)C1=O [compound of the present invention (4), 2,5-dioxo-3-(2-propynyl)imidazolidinylmethyl=(1R)-trans-3-[(1E)-2-cyano-2-(methylthio)ethenyl]-2,2-dimethylcyclopropane carboxylate] |  |  | 100 | 100 | 100 | 100
9 | C#CCN1CC(=O)N(COC(=O)[C@@H]2[C@@H](C=C(C#N)SCCCC)C2(C)C)C1=O [compound of the present invention (5), 2,5-dioxo-3-(2-propynyl)imidazolidinylmethyl=(1R)-trans-3-[(1EZ)-2-cyano-2-(butylthio)ethenyl]-2,2-dimethylcyclopropane carboxylate] |  |  | 83 | 100 | 100 | 
10 | C#CCN1CC(=O)N(COC(=O)[C@@H]2[C@@H](C=C(C#N)SC(C)C)C2(C)C)C1=O [compound of the present invention (6), 2,5-dioxo-3-(2-propynyl)imidazolidinylmethyl=(1R)-trans-3-[(1EZ)-2-cyano-2-(isopropylthio)ethenyl]-2,2-dimethylcyclopropane carboxylate] |  |  | 92 | 100 | 100 | 
11 | C#CCN1CC(=O)N(COC(=O)[C@@H]2[C@@H](/C=C(\C#N)SCC)C2(C)C)C1=O [compound of the present invention (13), 2,5-dioxo-3-(2-propynyl)imidazolidinylmethyl=(1R)-trans-3-[(1E)-2-cyano-2-(ethylthio)ethenyl]-2,2-dimethylcyclopropane carboxylate] | 100 | 100 |  | 100 | 100 | 
